The target of assay [1] is isolated recombinant JAK1 kinase domain (Homo sapiens (Human), UniProt P23458). Briefly: JAK1 enzyme assay (Caliper LabChip, Ki). It is filed as biochemical. The protocol: The activity of the isolated recombinant JAK1 and JAK2 kinase domain was measured by monitoring phosphorylation of a peptide derived from JAK3 ([…] fluorescently labeled on the N-terminus with 5-carboxyfluorescein) using the Caliper LabChip R technology (Caliper Life Sciences, Hopkinton, Mass.).

Assay [2] relates to JAK1-dependent STAT6 phosphorylation in BEAS-2B human bronchial epithelial cells. The experiment in a line: JAK1 pathway assay: IL-13 stimulated STAT6 phosphorylation in BEAS-2B cells. It is filed as cell-based. Particulars: BEAS-2B cells, IL-13 stimulation, read-out: IL-13 p-STAT6 BEAS-2B IC50. The procedure: JAK1 Pathway Assay in Cell Lines was Carried Out as Follows:
Inhibitor potency (EC50) was determined in cell-based assays designed to measure JAK1 dependent STAT phosphorylation.
In one assay approach, TF-1 human erythroleukemia cells obtained from the American Type Culture Collection (ATCC; Manassas, Va.) were used to measure JAK1-dependent STAT6 phosphorylation downstream of IL-13 stimulation. Prior to use in the assays, TF-1 cells were starved of GM-CSF overnight in OptiMEM medium (Life Technologies, Grand Island, N.Y.) supplemented with 0.5% charcoal/dextran stripped fetal bovine serum (FBS), 0.1 mM non-essential amino acids (NEAA), and 1 mM sodium pyruvate. The assays were run in 384-well plates in serum-free OptiMEM medium using 300,000 cells per well. In a second assay approach, BEAS-2B human bronchial epithelial cells obtained from ATCC were plated at 100,000 cells per well of a 96-well plate one day prior to the experiment. The BEAS-2B assay was run in complete growth medium (bronchial epithelial basal medium plus bulletkit; Lonza; Basel, Switzerland).
Test compounds were serially diluted 1:2 in DMSO and then diluted 1:50 in medium just before use. Diluted compounds were added to the cells, for a final DMSO concentration of 0.2%, and incubated for 30 min (for the TF-1 assay) or 1 hr (for the BEAS-2B assay) at 37° C. Then, cells were stimulated with human recombinant cytokine at their respective EC90 concentrations, as previously determined for each individual lot. Cells were stimulated with IL-13 (R&D Systems, Minneapolis, Minn.) for 15 min at 37° C. […] The resultant samples were frozen in the plates at −80° C. Compound mediated inhibition of STAT6 phosphorylation was measured in the cell lysates using MesoScale Discovery (MSD) technology (Gaithersburg, Md.).

The target in assay [3] is isolated recombinant JAK2 kinase domain (Homo sapiens (Human), UniProt O60674). Briefly: JAK2 enzyme assay (Caliper LabChip, Ki). Conditions: read-out: JAK2 Ki.
Chain of isolated recombinant JAK2 kinase domain (O60674 849-1124): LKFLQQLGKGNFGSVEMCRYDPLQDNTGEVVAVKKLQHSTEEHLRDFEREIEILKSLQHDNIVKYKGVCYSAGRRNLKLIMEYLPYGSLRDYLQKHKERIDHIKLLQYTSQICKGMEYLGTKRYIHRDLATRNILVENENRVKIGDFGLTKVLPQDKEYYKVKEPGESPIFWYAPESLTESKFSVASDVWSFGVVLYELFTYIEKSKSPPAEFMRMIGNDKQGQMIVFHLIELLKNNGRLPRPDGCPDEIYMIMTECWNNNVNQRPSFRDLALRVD

Where two headings read alike, the source gives them in different places.

By Ki is commonly meant the equilibrium dissociation constant of an inhibitor or competing ligand from its target. Broadly, the IC50 is the midpoint of a concentration-inhibition curve.

Chain of isolated recombinant JAK1 kinase domain (P23458 875-1153): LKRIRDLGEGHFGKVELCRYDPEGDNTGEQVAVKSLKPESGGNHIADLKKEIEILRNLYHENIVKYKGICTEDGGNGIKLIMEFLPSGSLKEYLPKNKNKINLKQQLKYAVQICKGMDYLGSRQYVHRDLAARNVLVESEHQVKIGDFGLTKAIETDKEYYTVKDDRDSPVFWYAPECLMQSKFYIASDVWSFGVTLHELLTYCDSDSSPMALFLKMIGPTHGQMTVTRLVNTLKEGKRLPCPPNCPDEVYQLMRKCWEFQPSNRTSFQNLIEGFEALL

`CC1CSc2cc(-c3nn(CC(=O)N(C)C)cc3NC(=O)c3cnn4cccnc34)c(OC(F)F)cc2N1` (single isomer, unassigned) [Example 114, N-[3-[6-(difluoromethoxy)-3-methyl-3,4-dihydro-2H-1,4-benzothiazin-7-yl]-1-[2-(dimethylamino)-2-oxo-ethyl]pyrazol-4-yl]pyrazolo[1,5-a]pyrimidine-3-carboxamide]: the Ki is 0.21 nM in assay [1] and 0.24 nM in assay [3]. Moreover, in assay [2], the IC50 came out at 15 nM.

Turning to `CN1CCC(n2cc(NC(=O)c3cnn4cccnc34)c(-c3cc4c(cc3OC(F)F)NCCS4)n2)C1=O` (single isomer, unassigned) [Example 125, N-[3-[6-(difluoromethoxy)-3,4-dihydro-2H-1,4-benzothiazin-7-yl]-1-(1-methyl-2-oxo-pyrrolidin-3-yl)pyrazol-4-yl]pyrazolo[1,5-a]pyrimidine-3-carboxamide], the Ki is 0.15 nM in assay [1] and 0.11 nM in assay [3]. Also, the IC50 in assay [2] is 81 nM.

In the case of `CN1CCC(n2cc(NC(=O)c3cnn4cccnc34)c(-c3cc4c(cc3OC(F)F)NCCS4)n2)C1=O` (single isomer, unassigned) [Example 126, N-[3-[6-(difluoromethoxy)-3,4-dihydro-2H-1,4-benzothiazin-7-yl]-1-(1-methyl-2-oxo-pyrrolidin-3-yl)pyrazol-4-yl]pyrazolo[1,5-a]pyrimidine-3-carboxamide], the Ki came out at 0.88 nM in assay [1] and 0.43 nM in assay [3]. In addition, the IC50 in assay [2] stood at 286 nM.

Regarding `O=C(Nc1cn(C2CCOC2=O)nc1-c1cc2c(cc1OC(F)F)NCCS2)c1cnn2cccnc12` (single isomer, unassigned) [Example 141, N-[3-[6-(difluoromethoxy)-3,4-dihydro-2H-1,4-benzothiazin-7-yl]-1-(2-oxotetrahydrofuran-3-yl)pyrazol-4-yl]pyrazolo[1,5-a]pyrimidine-3-carboxamide], the Ki in assay [1] is 0.17 nM; in assay [3], 0.09 nM. For the same molecule, the IC50 in assay [2] (Homo sapiens, BEAS-2B) is 11 nM.

For `O=C(Nc1cn(C2CCOC2=O)nc1-c1cc2c(cc1OC(F)F)NCCS2)c1cnn2cccnc12` (single isomer, unassigned) [Example 142, N-[3-[6-(difluoromethoxy)-3,4-dihydro-2H-1,4-benzothiazin-7-yl]-1-(2-oxotetrahydrofuran-3-yl)pyrazol-4-yl]pyrazolo[1,5-a]pyrimidine-3-carboxamide], the Ki in assay [1] was 0.09 nM; in assay [3], 0.06 nM. The IC50 in assay [2] is 15 nM.

For the molecule `O=C(Nc1cn(C2CCOC2=O)nc1-c1cc2c(cc1OC(F)F)NCCO2)c1cnn2cccnc12` (single isomer, unassigned) [Example 145, N-[3-[6-(difluoromethoxy)-3,4-dihydro-2H-1,4-benzoxazin-7-yl]-1-(2-oxotetrahydrofuran-3-yl)pyrazol-4-yl]pyrazolo[1,5-a]pyrimidine-3-carboxamide], the values for the Ki in assay [1] and in assay [3] were 0.6 nM and 0.42 nM, respectively. The IC50 in assay [2] amounted to 36 nM.

Consider `O=C(Nc1cn(C2CCOC2=O)nc1-c1cc2c(cc1OC(F)F)NCCO2)c1cnn2cccnc12` (single isomer, unassigned) [Example 146, N-[3-[6-(difluoromethoxy)-3,4-dihydro-2H-1,4-benzoxazin-7-yl]-1-(2-oxotetrahydrofuran-3-yl)pyrazol-4-yl]pyrazolo[1,5-a]pyrimidine-3-carboxamide; formic acid], for which the Ki was determined as 0.32 nM in assay [1] (formic acid) and 0.29 nM in assay [3] (formic acid). Moreover, in assay [2] (formic acid), the concentration for half-maximal inhibition (IC50) is 74 nM.

Take `O=C(Nc1c[nH]nc1-c1cc2ccccc2cc1OC(F)F)c1cnn2cccnc12` [Example 1, N-(3-(3-(difluoromethoxy)naphthalen-2-yl)-1H-pyrazol-4-yl)pyrazolo[1,5-a]pyrimidine-3-carboxamide]: the results for the Ki in assay [1] and in assay [3] were 0.31 nM and 0.14 nM, respectively. For the same molecule, the IC50 in assay [2] (Homo sapiens, BEAS-2B) is 6 nM.

For `O=C(Nc1cn(CC(=O)N2CCC(CN3CCOCC3)CC2)nc1-c1cc2ccccc2cc1OC(F)F)c1cnn2cccnc12` [Example 3, N-(3-(3-(difluoromethoxy)naphthalen-2-yl)-1-(2-(4-(morpholinomethyl)piperidin-1-yl)-2-oxoethyl)-1H-pyrazol-4-yl)pyrazolo[1,5-a]pyrimidine-3-carboxamide], the values for the Ki in assay [1] and in assay [3] were 0.38 nM and 0.97 nM, respectively. In addition, the 50% inhibitory concentration (IC50) in assay [2] (Homo sapiens, BEAS-2B) worked out at 8 nM.

Turning to `Cn1cc(NC(=O)c2cnn3cccnc23)c(-c2cc3ccccc3cc2OC(F)F)n1` [Example 4, N-(3-(3-(difluoromethoxy)naphthalen-2-yl)-1-methyl-1H-pyrazol-4-yl)pyrazolo[1,5-a]pyrimidine-3-carboxamide], the Ki in assay [1] is 0.22 nM; in assay [3], 0.12 nM. In assay [2] (Homo sapiens, BEAS-2B), the IC50 was determined as 22 nM.

`O=C(Nc1cn(CC(=O)N2CCCCC2)nc1-c1cc2c(cc1OC(F)F)NCCO2)c1cnn2cccnc12` [Example 6, N-[3-[6-(difluoromethoxy)-3,4-dihydro-2H-1,4-benzoxazin-7-yl]-1-[2-oxo-2-(piperidin-1-yl)ethyl]-1H-pyrazol-4-yl]pyrazolo[1,5-a]pyrimidine-3-carboxamide]: the values for the Ki in assay [1] and in assay [3] were 0.2 nM and 0.31 nM, respectively. Moreover, in assay [2] (Homo sapiens, BEAS-2B), the IC50 is 17 nM.

Turning to `COC(=O)c1cc2cc(OC(F)F)c(-c3n[nH]cc3NC(=O)c3cnn4cccnc34)cc2s1` [Example 7, Methyl 5-(difluoromethoxy)-6-(4-(pyrazolo[1,5-a]pyrimidine-3-carboxamido)-1H-pyrazol-3-yl)benzo[b]thiophene-2-carboxylate], the inhibitory constant (Ki) was determined as 0.17 nM in assay [1] and 0.11 nM in assay [3]. For the same molecule, the IC50 in assay [2] (Homo sapiens, BEAS-2B) turned out to be 6 nM.

With `COC(=O)Cn1cc(NC(=O)c2cnn3cccnc23)c(-c2cc3sccc3cc2OC(F)F)n1` [Example 8, Methyl 2-(3-(5-(difluoromethoxy)benzo[b]thiophen-6-yl)-4-(pyrazolo[1,5-a]pyrimidine-3-carboxamido)-1H-pyrazol-1-yl)acetate], the Ki turned out to be 0.32 nM in assay [1] and 0.29 nM in assay [3]. Moreover, in assay [2] (Homo sapiens, BEAS-2B), the IC50 turned out to be 10 nM.

As to `CC(C)(C)OC(=O)N1CCN(C(=O)c2cc3cc(OC(F)F)c(-c4n[nH]cc4NC(=O)c4cnn5cccnc45)cc3s2)CC1` [Example 9, tert-Butyl 4-(5-(difluoromethoxy)-6-(4-(pyrazolo[1,5-a]pyrimidine-3-carboxamido)-1H-pyrazol-3-yl)benzo[b]thiophene-2-carbonyl)piperazine-1-carboxylate], the Ki in assay [1] is 3.99 nM; in assay [3], 2.85 nM. Besides, in assay [2] (Homo sapiens, BEAS-2B), the IC50 turned out to be 153 nM.

As for `O=C(Nc1c[nH]nc1-c1cc2sc(C(=O)N3CCNCC3)cc2cc1OC(F)F)c1cnn2cccnc12` [Example 10, N-(3-(5-(difluoromethoxy)-2-(piperazine-1-carbonyl)benzo[b]thiophen-6-yl)-1H-pyrazol-4-yl)pyrazolo[1,5-a]pyrimidine-3-carboxamide], the Ki came out at 4.54 nM in assay [1] and 1.99 nM in assay [3]. The IC50 in assay [2] (Homo sapiens, BEAS-2B) is above 1000 nM.

For `O=C(Nc1c[nH]nc1-c1cc2c(cc1OC(F)F)NCCO2)c1cnn2cccnc12` [Example 11], the Ki is 0.1 nM in assay [1] and 0.08 nM in assay [3]. For the same molecule, the IC50 in assay [2] (Homo sapiens, BEAS-2B) is 4 nM.

The values above are taken from patent publication US11155557B2, “Pyrazolopyrimidine compounds and methods of use thereof” (Genentech, Inc., priority 2016, dated 2021).
